Experimental data as given in ChEMBL document CHEMBL5046309, “Discovery of SHR5133, a Highly Potent and Novel HBV Capsid Assembly Modulator” (ACS Med Chem Lett, 2022).
≈ marks a conversion by molar mass, not a printed value. Calls of active or inactive are those of the source. No cut-off for these calls is given here.

Columns and labels:
HepG2 2.2.15 = assay: Cytotoxicity against human HepG2.2.15 cells assessed as reduction in cell viability incubated for 72 hrs by cell titer-glo assay; format: functional
Hepatitis B virus [1] = assay: Antiviral activity against HBV infected in C57BL/6 mouse assessed as reduction on HBsAg level at 10 mg/kg,po BID for 28 days by ELISA; format: functional, organism-based; conditions: time 28.0 day
Hepatitis B virus [2] = assay: Antiviral activity against HBV infected in C57BL/6 mouse assessed as reduction on HBeAg level at 10 mg/kg,po BID for 28 days by ELISA; format: functional, organism-based; conditions: time 28.0 day
Cytochrome P450 3A4 [3] = target: T1, Cytochrome P450 3A4 (Homo sapiens, UniProt P08684); assay: Inhibition of recombinant human CYP3A4 using midazolam as substrate by LC-MS/MS analysis; format: ADME
[4] = Microsomal stability in dog liver microsome assessed as half life measured up to 24 hrs by LC-MS/MS analysis; format: ADME, Canis lupus familiaris; conditions: liver microsomes
[5] = AUC(0 to 24 hrs) in nude mouse at 2 mg/kg, po measured up to 24 hrs by LC-MS/MS analysis; format: ADME, organism-based; parameters: route oral, dose 2 mg/kg, time <=24; conditions: in vivo
[6] = Half life in Beagle dog at 0.5 mg/kg, po measured up to 24 hrs by LC-MS/MS analysis; format: ADME, organism-based, Canis lupus familiaris; conditions: in vivo
[7] = Solubility of the compound in FaSSIF using amorphous form of sample by LC-MS/MS analysis; format: physicochemical
[8] = Solubility of the compound in phosphate buffer at pH 7.4 using amorphous form of sample by LC-MS/MS analysis; format: physicochemical
[9] = Apparent permeability of the compound across apical to basolateral side in […] measured up to 24 hrs by LC-MS/MS analysis; format: ADME, cell-based
Cytochrome P450 1A2 = target: T2, Cytochrome P450 1A2 (Homo sapiens, UniProt P05177); assay: Inhibition of recombinant human CYP1A2 by LC-MS/MS analysis; format: ADME
T2 sequence (P05177 whole entry): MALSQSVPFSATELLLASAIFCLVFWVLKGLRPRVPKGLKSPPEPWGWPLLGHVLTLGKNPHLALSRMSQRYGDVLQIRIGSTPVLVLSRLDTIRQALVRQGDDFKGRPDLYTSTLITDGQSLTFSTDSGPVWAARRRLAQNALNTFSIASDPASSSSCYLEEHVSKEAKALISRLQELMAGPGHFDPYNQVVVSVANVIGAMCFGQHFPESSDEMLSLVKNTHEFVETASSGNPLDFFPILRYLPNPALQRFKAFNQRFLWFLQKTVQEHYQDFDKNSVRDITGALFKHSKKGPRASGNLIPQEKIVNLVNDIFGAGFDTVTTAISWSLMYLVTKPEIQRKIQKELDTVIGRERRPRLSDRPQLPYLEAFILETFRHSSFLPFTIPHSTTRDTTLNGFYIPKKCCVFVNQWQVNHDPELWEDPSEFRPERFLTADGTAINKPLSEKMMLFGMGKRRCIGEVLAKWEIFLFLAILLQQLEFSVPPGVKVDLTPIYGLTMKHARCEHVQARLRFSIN

[10] = Cmax in nude mouse at 2 mg/kg, po measured up to 24 hrs by LC-MS/MS analysis; format: ADME, organism-based; parameters: route oral, dose 2 mg/kg, time <=24; conditions: in vivo
Cytochrome P450 3A4 [11] = target: T1, Cytochrome P450 3A4; assay: Inhibition of recombinant human CYP3A4 using testosterone as substrate by LC-MS/MS analysis; format: ADME
[12] = Cmax in nude mouse at 100 mg/kg, po measured up to 24 hrs by LC-MS/MS analysis; format: ADME, organism-based; parameters: route oral, dose 100 mg/kg, time <=24; conditions: in vivo
[13] = Microsomal stability in mouse liver microsome assessed as half life measured up to 24 hrs by LC-MS/MS analysis; format: ADME; conditions: liver microsomes
[14] = Efflux ratio of apparent permeability across basolateral to apical side over apical to basolateral side in […] by LC-MS/MS analysis; format: ADME, cell-based
[15] = Plasma protein binding in rat by LC-MS/MS analysis; format: ADME, cell-free; conditions: read-out: PPB (converted)
[16] = Microsomal stability in human liver microsome assessed as half life measured up to 24 hrs by LC-MS/MS analysis; format: ADME; conditions: liver microsomes
[17] = Plasma protein binding in human by LC-MS/MS analysis; format: ADME, cell-free; conditions: read-out: PPB (converted)
[18] = target: Voltage-gated inwardly rectifying potassium channel KCNH2 (Homo sapiens, UniProt Q12809); assay: Inhibition of human ERG by LC-MS/MS analysis; format: toxicity
[19] = Cmax in nude mouse at 10 mg/kg, po measured up to 24 hrs by LC-MS/MS analysis; format: ADME, organism-based; parameters: route oral, dose 10 mg/kg, time <=24; conditions: in vivo
[20] = Lipophilicity, logD of compound at pH 7.4 by LC-MS/MS analysis; format: physicochemical; conditions: buffer
[21] = AUC(0 to 24 hrs) in nude mouse at 10 mg/kg, po measured up to 24 hrs by LC-MS/MS analysis; format: ADME, organism-based; parameters: route oral, dose 10 mg/kg, time <=24; conditions: in vivo
Hepatitis B virus [22] = assay: Antiviral activity against HBV infected in C57BL/6 mouse assessed as HBV DNA reduction at 3 to 30 mg/kg,po BID for 28 days by qPCR method; format: functional, organism-based; conditions: dose 3-30 mg/kg, time 28.0 day
Cytochrome P450 2C9 = Cytochrome P450 2C9 (Homo sapiens, UniProt P11712); assay: Inhibition of recombinant human CYP2C9 by LC-MS/MS analysis; format: ADME
[23] = Clearance in nude mouse at 1 mg/kg, iv measured up to 24 hrs by LC-MS/MS analysis; format: ADME, organism-based; conditions: in vivo
[24] = AUC(0 to 24 hrs) in nude mouse at 100 mg/kg, po measured up to 24 hrs by LC-MS/MS analysis; format: ADME, organism-based; parameters: route oral, dose 100 mg/kg, time <=24; conditions: in vivo
[25] = Clearance in Sprague-Dawley rat at 1 mg/kg, iv measured up to 24 hrs by LC-MS/MS analysis; format: ADME, organism-based; conditions: in vivo
[26] = Clearance in Beagle dog at 1 mg/kg, iv measured up to 24 hrs by LC-MS/MS analysis; format: ADME, organism-based, Canis lupus familiaris; conditions: in vivo
[27] = Apparent permeability of the compound across basolateral to apical side in […] measured up to 24 hrs by LC-MS/MS analysis; format: ADME, cell-based
[28] = Half life in nude mouse at 100 mg/kg, po measured up to 24 hrs by LC-MS/MS analysis; format: ADME, organism-based; conditions: in vivo
[29] = Cmax in Sprague-Dawley rat at 2 mg/kg, po measured up to 24 hrs by LC-MS/MS analysis; format: ADME, organism-based; parameters: route oral, dose 2 mg/kg, time <=24; conditions: in vivo
[30] = AUC(0 to 24 hrs) in Sprague-Dawley rat at 2 mg/kg, po measured up to 24 hrs by LC-MS/MS analysis; format: ADME, organism-based; parameters: route oral, dose 2 mg/kg, time <=24; conditions: in vivo
[31] = Plasma protein binding in mouse by LC-MS/MS analysis; format: ADME, cell-free; conditions: read-out: PPB (converted)
Cytochrome P450 2D6 = Cytochrome P450 2D6 (Homo sapiens, UniProt P10635); assay: Inhibition of recombinant human CYP2D6 by LC-MS/MS analysis; format: ADME
Cytochrome P450 2C19 = Cytochrome P450 2C19 (Homo sapiens, UniProt P33261); assay: Inhibition of recombinant human CYP2C19 by LC-MS/MS analysis; format: ADME
[32] = Microsomal stability in rat liver microsome assessed as half life measured up to 24 hrs by LC-MS/MS analysis; format: ADME; conditions: liver microsomes
[33] = Half life in nude mouse at 10 mg/kg, po measured up to 24 hrs by LC-MS/MS analysis; format: ADME, organism-based; conditions: in vivo
[34] = AUC(0 to 24 hrs) in Beagle dog at 0.5 mg/kg, po measured up to 24 hrs by LC-MS/MS analysis; format: ADME, organism-based, Canis lupus familiaris; parameters: route oral, dose 0.5 mg/kg, time <=24; conditions: in vivo
[35] = Cmax in Beagle dog at 0.5 mg/kg, po measured up to 24 hrs by LC-MS/MS analysis; format: ADME, organism-based, Canis lupus familiaris; parameters: route oral, dose 0.5 mg/kg, time <=24; conditions: in vivo
[36] = Plasma protein binding in dog by LC-MS/MS analysis; format: ADME, cell-free, Canis lupus familiaris; conditions: read-out: PPB (converted)
[37] = Half life in nude mouse at 2 mg/kg, po measured up to 24 hrs by LC-MS/MS analysis; format: ADME, organism-based; conditions: in vivo
Hepatitis B virus [38] = assay: Antiviral activity against HBV infected in C57BL/6 mouse assessed as reduction on HBeAg level at 3 to 30 mg/kg,po BID for 28 days by ELISA; format: functional, organism-based; conditions: dose 3-30 mg/kg, time 28.0 day
Hepatitis B virus [39] = assay: Antiviral activity against HBV infected in C57BL/6 mouse assessed as reduction on HBsAg level at 3 to 30 mg/kg,po BID for 28 days by ELISA; format: functional, organism-based; conditions: dose 3-30 mg/kg, time 28.0 day

T1 sequence (P08684 whole entry): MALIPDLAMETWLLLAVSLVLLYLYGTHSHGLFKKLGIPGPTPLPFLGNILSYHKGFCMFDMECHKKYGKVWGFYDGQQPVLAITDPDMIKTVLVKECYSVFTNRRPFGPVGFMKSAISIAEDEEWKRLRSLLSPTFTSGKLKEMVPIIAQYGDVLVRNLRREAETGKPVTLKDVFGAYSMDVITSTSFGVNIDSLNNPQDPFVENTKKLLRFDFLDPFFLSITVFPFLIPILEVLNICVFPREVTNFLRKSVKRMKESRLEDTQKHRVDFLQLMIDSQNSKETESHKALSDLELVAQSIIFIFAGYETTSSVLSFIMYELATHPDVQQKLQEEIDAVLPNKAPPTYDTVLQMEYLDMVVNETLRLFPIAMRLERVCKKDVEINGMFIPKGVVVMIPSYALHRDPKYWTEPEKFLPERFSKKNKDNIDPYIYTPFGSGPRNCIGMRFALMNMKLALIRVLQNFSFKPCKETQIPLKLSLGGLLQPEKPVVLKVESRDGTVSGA
Chain of Voltage-gated inwardly rectifying potassium channel KCNH2 (Q12809 whole entry): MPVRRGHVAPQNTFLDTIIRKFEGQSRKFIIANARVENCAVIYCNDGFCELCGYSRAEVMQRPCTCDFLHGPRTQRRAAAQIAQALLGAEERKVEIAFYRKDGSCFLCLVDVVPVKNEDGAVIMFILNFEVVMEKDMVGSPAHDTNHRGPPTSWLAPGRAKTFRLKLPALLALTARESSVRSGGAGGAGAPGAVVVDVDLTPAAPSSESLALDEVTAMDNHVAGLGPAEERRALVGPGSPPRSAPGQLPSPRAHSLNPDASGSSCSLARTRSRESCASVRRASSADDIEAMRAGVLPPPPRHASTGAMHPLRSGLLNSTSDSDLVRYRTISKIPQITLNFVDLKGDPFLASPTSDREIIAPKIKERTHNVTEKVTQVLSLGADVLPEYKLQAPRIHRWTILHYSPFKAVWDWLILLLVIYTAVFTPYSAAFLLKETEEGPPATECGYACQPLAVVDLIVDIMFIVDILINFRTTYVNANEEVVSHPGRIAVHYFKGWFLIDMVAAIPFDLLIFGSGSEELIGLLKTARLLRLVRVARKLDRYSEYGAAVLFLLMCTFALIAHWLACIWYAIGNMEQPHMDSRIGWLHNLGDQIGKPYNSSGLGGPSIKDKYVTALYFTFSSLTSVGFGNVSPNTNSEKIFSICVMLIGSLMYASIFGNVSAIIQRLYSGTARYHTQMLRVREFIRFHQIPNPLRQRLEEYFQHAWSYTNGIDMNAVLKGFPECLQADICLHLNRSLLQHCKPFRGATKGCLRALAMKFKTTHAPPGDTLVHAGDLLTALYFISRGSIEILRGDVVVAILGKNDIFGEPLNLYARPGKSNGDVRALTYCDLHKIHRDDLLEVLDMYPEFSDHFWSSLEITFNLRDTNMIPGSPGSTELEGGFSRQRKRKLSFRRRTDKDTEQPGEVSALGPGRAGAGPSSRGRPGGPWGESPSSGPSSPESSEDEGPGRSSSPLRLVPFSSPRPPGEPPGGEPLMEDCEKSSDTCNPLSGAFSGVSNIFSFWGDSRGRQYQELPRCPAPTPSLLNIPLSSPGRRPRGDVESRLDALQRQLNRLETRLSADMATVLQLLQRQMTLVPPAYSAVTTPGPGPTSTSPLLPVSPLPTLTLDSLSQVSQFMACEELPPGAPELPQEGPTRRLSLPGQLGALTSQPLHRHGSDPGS
Chain of Cytochrome P450 2C19 (P33261 whole entry): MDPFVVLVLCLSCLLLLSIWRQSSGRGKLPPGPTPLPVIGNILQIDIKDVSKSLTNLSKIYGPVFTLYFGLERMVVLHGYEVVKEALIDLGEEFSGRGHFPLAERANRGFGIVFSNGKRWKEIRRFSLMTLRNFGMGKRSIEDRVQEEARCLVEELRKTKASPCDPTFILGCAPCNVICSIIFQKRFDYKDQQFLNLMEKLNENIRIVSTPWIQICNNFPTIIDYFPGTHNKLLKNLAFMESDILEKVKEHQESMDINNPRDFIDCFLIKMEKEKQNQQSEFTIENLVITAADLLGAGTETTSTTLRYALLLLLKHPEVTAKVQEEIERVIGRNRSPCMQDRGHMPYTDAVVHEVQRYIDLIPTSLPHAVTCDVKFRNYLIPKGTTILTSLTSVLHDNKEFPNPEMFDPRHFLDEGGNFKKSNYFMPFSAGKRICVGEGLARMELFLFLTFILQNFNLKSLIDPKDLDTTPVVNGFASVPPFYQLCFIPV
Chain of Cytochrome P450 2C9 (P11712 whole entry): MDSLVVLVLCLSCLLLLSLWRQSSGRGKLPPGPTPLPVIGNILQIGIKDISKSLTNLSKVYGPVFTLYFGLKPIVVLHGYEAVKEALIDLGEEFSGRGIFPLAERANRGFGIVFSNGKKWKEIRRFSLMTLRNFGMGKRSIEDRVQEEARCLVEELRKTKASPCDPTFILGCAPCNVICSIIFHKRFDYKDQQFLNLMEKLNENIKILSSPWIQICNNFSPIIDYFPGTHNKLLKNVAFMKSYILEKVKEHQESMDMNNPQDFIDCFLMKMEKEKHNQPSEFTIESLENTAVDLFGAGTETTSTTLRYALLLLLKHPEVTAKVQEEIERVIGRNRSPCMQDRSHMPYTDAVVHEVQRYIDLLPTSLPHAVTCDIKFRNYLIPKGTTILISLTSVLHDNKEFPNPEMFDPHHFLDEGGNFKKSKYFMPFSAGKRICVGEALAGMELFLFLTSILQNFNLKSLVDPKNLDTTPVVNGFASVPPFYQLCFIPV
Chain of Cytochrome P450 2D6 (P10635 whole entry): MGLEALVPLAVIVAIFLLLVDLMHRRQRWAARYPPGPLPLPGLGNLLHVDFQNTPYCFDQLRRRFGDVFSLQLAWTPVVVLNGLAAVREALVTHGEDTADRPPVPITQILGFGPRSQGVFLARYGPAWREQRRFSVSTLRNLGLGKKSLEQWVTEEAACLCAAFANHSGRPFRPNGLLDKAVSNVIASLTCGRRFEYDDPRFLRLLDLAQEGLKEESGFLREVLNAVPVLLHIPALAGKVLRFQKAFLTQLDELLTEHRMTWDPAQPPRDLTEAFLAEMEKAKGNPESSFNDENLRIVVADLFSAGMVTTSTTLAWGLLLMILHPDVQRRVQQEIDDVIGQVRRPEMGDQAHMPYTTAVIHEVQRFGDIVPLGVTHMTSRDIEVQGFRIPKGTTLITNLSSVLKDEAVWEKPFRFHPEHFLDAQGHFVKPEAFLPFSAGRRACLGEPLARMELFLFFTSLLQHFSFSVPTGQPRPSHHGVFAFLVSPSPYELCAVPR

For `C[C@H]1Cn2ncc(C(=O)N[C@H](C)C(F)(F)F)c2CN1C(=O)Nc1ccc(F)c(C#N)c1`, the CC50 (HepG2 2.2.15) was > 100 µM.
In the case of `C[C@H]1Cn2ncc(C(=O)N[C@H](C)C(F)(F)F)c2CN1C(=O)Nc1cc(F)nc(F)c1`, the CC50 (HepG2 2.2.15) is reported as > 100 µM.
With `C[C@H]1Cn2ncc(C(=O)N[C@H](C)C(F)(F)F)c2CN1C(=O)Nc1ccc(F)c(F)c1` the CC50 (HepG2 2.2.15) was > 100 µM.
In the case of `C[C@H](NS(=O)(=O)c1cc(C(=O)Nc2ccc(F)c(C#N)c2)n(C)c1)C(F)(F)F`, the Activity (Hepatitis B virus [1]) is reported as “inactive” and the Activity (Hepatitis B virus [2]) is reported as “inactive”.
`C[C@H]1Cn2cnc(C(=O)N[C@H](C)C(F)(F)F)c2CN1C(=O)Nc1ccc(F)c(F)c1` showed a CC50 (HepG2 2.2.15) of 60.9 µM.
For `C[C@H]1Cn2cnc(C(=O)N[C@H](C)C(F)(F)F)c2CN1C(=O)Nc1ccc(F)c(C#N)c1`, the IC50 (Cytochrome P450 3A4 [3]) was > 30 µM, the half-life [4] was > 2.32 h and the AUC [5] was 7.16 µg/mL/h. For the same compound, the half-life [6] was 30.8 h, the CC50 (HepG2 2.2.15) was > 100 µM and the solubility [7] was 1640 µM (≈ 718 µg/mL). For the same compound, the solubility [8] was 106 µM (≈ 46.5 µg/mL), the Papp A→B at 24 h [9] was 10.9 ×10⁻⁶ cm/s and the IC50 (Cytochrome P450 1A2) was > 30 µM. The Cmax [10] was 1120 ng/mL, the IC50 (Cytochrome P450 3A4 [11]) was > 30 µM and the Cmax [12] was 22200 ng/mL. For the same compound, the half-life [13] was > 2 h, the efflux ratio [14] was 4.73 and the fraction unbound [15] was 0.244. The half-life [16] was > 2.32 h, the fraction unbound [17] was 0.113 and the IC50 [18] was > 30 µM. For the same compound, the Cmax [19] was 4600 ng/mL, the logD [20] was 2.27 and the AUC [21] was 24.4 µg/mL/h. For the same compound, the Activity (Hepatitis B virus [22]) was “Dose-Dependent Effect”, the IC50 (Cytochrome P450 2C9) was > 30 µM and the clearance [23] was 5.3 mL/min/kg. The AUC [24] was 28.9 µg/mL/h, the clearance [25] was 4.5 mL/min/kg and the clearance [26] was 1.1 mL/min/kg. It also gave a Papp B→A at 24 h [27] of 51.4 ×10⁻⁶ cm/s, a half-life [28] of 4.97 h and a Cmax [29] of 597 ng/mL. The AUC [30] was 7.98 µg/mL/h, the fraction unbound [31] was 0.12 and the IC50 (Cytochrome P450 2D6) was > 30 µM. The IC50 (Cytochrome P450 2C19) was > 30 µM, the half-life [32] was > 1.12 h and the half-life [33] was 3.38 h. The AUC [34] was 9.01 µg/mL/h, the Cmax [35] was 559 ng/mL and the fraction unbound [36] was 0.23. The half-life [37] was 5.04 h, the Activity (Hepatitis B virus [38]) was “inactive” and the Activity (Hepatitis B virus [39]) was “inactive”.
